Data as given in patent US20070128217A1 (priority 2003, published 2007).

Legend:
[1] = tested on: antibodies in sera from SARS patients (sera 1a, 1b, 2, 6, 37, 62, London, SARS-yellow, SARS-green); format: binding, human; design: Binding of serum 6 to linear peptides of protein X1 of SARS-CoV Urbani / Binding of serum 37 to linear peptides of protein X1 of SARS-CoV Urbani / Binding of serum 6 to looped/cyclic peptide (PEPSCAN-ELISA) / Binding of serum 37 to looped/cyclic peptide (PEPSCAN-ELISA) / Binding of serum 37 to looped/cyclic peptides of protein X1 of SARS-CoV Urbani / Binding of serum 6 to linear peptides of protein X2 / Binding of serum 37 to linear peptides of protein X2 / Binding of serum 37 to looped/cyclic peptides of protein X2 of SARS-CoV Urbani / Binding of serum 6 to linear peptides of protein M of SARS-CoV Urbani / Binding of serum 37 to linear peptides of protein M of SARS-CoV Urbani / Binding of serum 6 to looped/cyclic peptides of protein M of SARS-CoV Urbani / Binding of serum 37 to looped/cyclic peptides of protein M of SARS-CoV Urbani / Binding of serum 6 to linear peptides of protein X3 of SARS-CoV Urbani / Binding of serum 37 to linear peptides of protein X3 of SARS-CoV Urbani / Binding of serum 37 to looped/cyclic peptides of protein X3 of SARS-CoV Urbani / Binding of serum 6 to linear peptides of protein X4 of SARS-CoV Urbani / Binding of serum 37 to linear peptides of protein X4 of SARS-CoV Urbani / Binding of serum 37 to looped/cyclic peptides of protein X4 of SARS-CoV Urbani / Binding of serum 6 to linear peptides of protein X5 of SARS-CoV Urbani / Binding of serum 37 to linear peptides of protein X5 of SARS-CoV Urbani / Binding of serum 37 to looped/cyclic peptides of protein X5 of SARS-CoV Urbani / Binding of serum 6 to linear peptides of protein N of SARS-CoV Urbani / Binding of serum 37 to linear peptides of protein N of SARS-CoV Urbani / Binding of serum 6 to linear peptide (PEPSCAN-ELISA) / Binding of serum 1a to looped/cyclic peptides of protein N of SARS-CoV Urbani / Binding of serum 1b to looped/cyclic peptides of protein N of SARS-CoV Urbani / Binding of serum 2 to looped/cyclic peptides of protein N of SARS-CoV Urbani / Binding of serum 6 to looped/cyclic peptides of protein N of SARS-CoV Urbani / Binding of serum 37 to looped/cyclic peptides of protein N of SARS-CoV Urbani / Binding of serum 62 to looped/cyclic peptides of protein N of SARS-CoV Urbani / Binding of serum London to looped/cyclic peptides of protein N of SARS-CoV Urbani / Binding of serum SARS-green to looped/cyclic peptides of protein N of SARS-CoV Urbani: unit not given here
[2] = tested on: rabbit serum obtained by immunizing a rabbit with the SARS-CoV strain Frankfurt 1; format: binding; design: Binding of a rabbit serum to linear peptides / Binding of a rabbit serum to looped peptides / Rabbit serum linear peptides / Rabbit serum looped peptides / Binding of a rabbit serum to linear peptides of protein N of SARS-CoV Urbani (Rabbit serum linear peptides) / Binding of a rabbit serum to looped/cyclic peptides of protein N of SARS-CoV Urbani (Rabbit serum looped peptides): unit not given here
[3] = tested on: control sera (pooled serum of ten healthy LUMC hospital workers; commercial negative donor pooled serum from the Dutch bloodbank); format: binding, human; design: Binding of Control serum LUMC to linear peptides / Binding of Control serum Blood-bank to linear peptides / Binding of Control serum LUMC to looped peptides / Binding of Control Serum Blood-Bank to Looped peptides / Binding of Control serum LUMC to linear peptides of the protein M of SARS-CoV Urbani / Binding of Control serum Blood-bank to linear peptides of the protein M of SARS-CoV Urbani / Binding of Control serum LUMC to looped peptides of the protein M of SARS-CoV Urbani / Binding of Control Serum Blood-Bank to Looped peptides of the protein M of SARS-CoV Urbani: unit not given here

VFLWLLWPVTLACFV
0.3: Binding of serum SARS-green to looped/cyclic peptides of protein M of SARS-CoV Urbani [1] | Binding of serum SARS-yellow to linear peptides of protein M of SARS-CoV Urbani [1] | Rabbit serum linear peptides [2] | Rabbit serum looped peptides [2]
0.8: Binding of serum 1a to linear peptides of protein M of SARS-CoV Urbani [1] | Binding of serum SARS-yellow to looped/cyclic peptides of protein M of SARS-CoV Urbani [1] | Binding of Control Serum Blood-Bank to Looped peptides of the protein M of SARS-CoV Urbani [3] | Binding of Control serum LUMC to looped peptides of the protein M of SARS-CoV Urbani [3]
0.5: Binding of serum 6 to looped/cyclic peptides of protein M of SARS-CoV Urbani [1] | Binding of serum 37 to linear peptides of protein M of SARS-CoV Urbani [1] | Binding of serum 62 to linear peptides of protein M of SARS-CoV Urbani [1] | Binding of serum London to linear peptides of protein M of SARS-CoV Urbani [1]
0.2: Binding of serum London to looped/cyclic peptides of protein M of SARS-CoV Urbani [1]
0.6: Binding of serum 1b to linear peptides of protein M of SARS-CoV Urbani [1] | Binding of serum 2 to linear peptides of protein M of SARS-CoV Urbani [1] | Binding of serum SARS-green to linear peptides of protein M of SARS-CoV Urbani [1] | Binding of Control serum Blood-bank to linear peptides of the protein M of SARS-CoV Urbani [3] | Binding of Control serum LUMC to linear peptides of the protein M of SARS-CoV Urbani [3]
0.7: Binding of serum 1a to looped/cyclic peptides of protein M of SARS-CoV Urbani [1] | Binding of serum 2 to looped/cyclic peptides of protein M of SARS-CoV Urbani [1] | Binding of serum 37 to looped/cyclic peptides of protein M of SARS-CoV Urbani [1] | Binding of serum 62 to looped/cyclic peptides of protein M of SARS-CoV Urbani [1]
0.4: Binding of serum 6 to linear peptides of protein M of SARS-CoV Urbani [1]
0.0: Binding of serum 1b to looped/cyclic peptides of protein M of SARS-CoV Urbani [1]

TSTHFAFACADGTRH
0.8: Binding of serum 1a to looped/cyclic peptides of protein X4 of SARS-CoV Urbani [1] | Binding of serum 62 to linear peptides of protein X4 of SARS-CoV Urbani [1] | Binding of serum 62 to looped/cyclic peptides of protein X4 of SARS-CoV Urbani [1] | Binding of serum London to linear peptides of protein X4 of SARS-CoV Urbani [1] | Binding of Control Serum Blood-Bank to Looped peptides [3] | Binding of Control serum LUMC to linear peptides [3] | Binding of Control serum LUMC to looped peptides [3]
0.4: Binding of serum London to looped/cyclic peptides of protein X4 of SARS-CoV Urbani [1]
0.6: Binding of serum 1b to linear peptides of protein X4 of SARS-CoV Urbani [1] | Binding of serum 2 to looped/cyclic peptides of protein X4 of SARS-CoV Urbani [1] | Binding of serum SARS-green to linear peptides of protein X4 of SARS-CoV Urbani [1] | Binding of serum SARS-green to looped/cyclic peptides of protein X4 of SARS-CoV Urbani [1]
0.5: Binding of serum 2 to linear peptides of protein X4 of SARS-CoV Urbani [1] | Rabbit serum linear peptides [2]
0.2: Binding of serum SARS-yellow to linear peptides of protein X4 of SARS-CoV Urbani [1]
0.7: Binding of serum 1a to linear peptides of protein X4 of SARS-CoV Urbani [1] | Binding of serum 1b to looped/cyclic peptides of protein X4 of SARS-CoV Urbani [1] | Binding of serum 6 to linear peptides of protein X4 of SARS-CoV Urbani [1] | Binding of serum 6 to looped/cyclic peptides of protein X4 of SARS-CoV Urbani [1] | Binding of serum 37 to linear peptides of protein X4 of SARS-CoV Urbani [1] | Binding of serum 37 to looped/cyclic peptides of protein X4 of SARS-CoV Urbani [1] | Binding of serum SARS-yellow to looped/cyclic peptides of protein X4 of SARS-CoV Urbani [1] | Rabbit serum looped peptides [2] | Binding of Control serum Blood-bank to linear peptides [3]
